# Where two headings read alike, the source gives them in different places.
# Assays:
# [1] = test system: OCT3-BT20 cells; set-up: method as in PMID 26669511; details: OCT3-overexpressing BT-20 vs BT-20; cited from earlier work
# [2] = test system: OCTs; assay: Inhibition of [14C]choline uptake in MDA-MB-231 cells (competitive inhibition assay); format: cell-based, human
# Description: (§1) The following day, after removal of the culture medium, the cells were carefully washed with prewarmed HBSS (Hanks’ balanced salt solution) containing 125 mM NaCl, 4.8 mM KCl, 1.2 mM MgSO4, 1.2 mM KH2PO4, 1.3 mM CaCl2, 5.6 mM glucose and 25 mM HEPES (pH 7.4). […] Then, the cells were washed three times with ice-cold HBSS (500 μL) and were lysed with 250 μL of 0.1-M NaOH in the ice bath, and the lysate was mixed with 1.0 mL of an emulsifier safe cocktail (PerkinElmer, Waltham, MA, USA). The radioactivity was measured by liquid scintillation counting (MicroBeta^2 counter, PerkinElmer, Waltham, MA, USA). The studies were carried out with the use of at least three replicates from the same cell passage.
# [3] = test system: MCF-7 cells; set-up: method as in PMID 30913467; details: up to 3000 µmol/L; cited from earlier work
# [4] = test system: MCF-7 cells; details: metformin, cited from earlier work
# [5] = test system: MDA-MB-231 cells; set-up: method as in PMID 30913467; details: up to 3000 µmol/L; cited from earlier work
# [6] = test system: OCTs; assay: Inhibition of [14C]choline uptake in MCF-7 cells (competitive inhibition assay); format: cell-based, human
# Description: as §1
# [7] = test system: MDA-MB-231 cells; details: metformin, cited from earlier work
# [8] = test system: MCF-7 cells; assay: Uptake in the presence of OCT and MATE inhibitors, MCF-7 cells; format: in vitro ADME, human
# Description: (§2) The uptake of sulfonamide derivatives of metformin (1–9) in MCF-7 and MDA-MB-231 cells was studied also in the presence of disopyramide, cimetidine (OCT1 and 3 inhibitors), lopinavir (OCT and PMAT inhibitor) and methenamine (MATE and OCT2 inhibitors). The cells were incubated (37 °C, 10 min) with compounds 1–9 at concentrations of 400 and 800 μmol/L and inhibitors (disopyramide, cimetidine, lopinavir or methenamine) in 250 μL of prewarmed HBSS buffer. The protocol of determination of the compound concentration was as described above.
# [9] = test system: MDA-MB-231 cells; assay: Cellular uptake of metformin sulfonamides in MDA-MB-231 cells (HPLC); format: in vitro ADME, human
# Description: (§3) The uptake of metformin sulfonamides (1–9) in MCF-7 and MDA-MB-231 cells was studied by incubation of the cells with 10−3000 μmol/L of compounds in 250 μL of prewarmed HBSS buffer at 37 °C for 10 min. Subsequently, the cells were then washed three times with 500 μL of ice-cold HBSS and lysed with 250 μL of 0.1-M NaOH. The samples were collected, centrifuged (5 min, 1400 rpm) and the supernatants were analyzed by the HPLC method. The concentration of each compound in the cells was calculated on the basis of the standard curve prepared by spiking known amounts of every compound on the cell layers in 250 μL of 0.1-M NaOH.
# (§4) The concentration of the studied sulfonamides (1–9) was assessed using the HPLC system, consisting of an Agilent 1100 binary pump (Agilent Technologies Inc., Wilmington, DE, USA), an 1100 micro-vacuum degasser, an HP 1050 autosampler and an HP 1050 variable wavelength detector (operated at 235 nm). The chromatographic separations of compounds 1–9 were conducted on an Agilent Zorbax SB-C18 analytical column (4.6 mm × 150 mm, 5 μm) using an isocratic elution of water containing 0.1% formic acid (pH ca. 3.0) and acetonitrile containing 0.1% formic acid with a changing ratio, depending on the compound. The analyses were conducted at room temperature (RT). The detailed procedure of chromatographic analysis was described in our previous paper. The studies were conducted in quadruplicates.
# (§5) The protein concentrations in representative wells of each plate were assessed using a Bio-Rad protein assay according to the Bradford method (EnVision, PerkinElmer, Inc., Waltham, MA, USA).
# [10] = test system: MCF-7 cells; assay: Cellular uptake of metformin sulfonamides in MCF-7 cells (HPLC); format: in vitro ADME, human
# Description: as §3, §4, §5
# [11] = test system: MDA-MB-231 cells; assay: Uptake in the presence of OCT and MATE inhibitors, MDA-MB-231 cells; format: in vitro ADME, human
# Description: as §2
# [12] = test system: MDA-MB-231 cells; assay: Cell viability WST-1 assay, MDA-MB-231; format: cell-based; details: Homo sapiens, MDA-MB-231; WST-1, 24 h, mean ± SD (n = 6–8); read-out: IC50 inhibition of MDA-MB-231 cells' viability
# Description: (§6) The viability of MCF-7 and MDA-MB-231 cells was determined using a colorimetric WST-1 assay (Takara, Takara Bio Europe, Saint-Germain-en-Laye, France). Both cell lines were seeded at a density of 1 × 10^4 per well on 96-well plates and were cultured for 24 h to obtain 70% confluence. The following day, the cells were treated with various concentrations of compounds 1–9 diluted in the cell culture medium ([…]). The cells were incubated with tested compounds or pure medium (control) for 24 h (37 °C, 5% CO2). Afterwards, the cells were washed with 100 μL of culture medium, and then, the reagent dissolved in the medium was added (100 μL). The plates were incubated at the standard condition for 1.5 h, and the absorbance was read at 450 nm using a microplate reader (iMARK, Bio-Rad, Bio-Rad Laboratories Inc., Hercules, CA, USA). […] The results of samples treated with the test compounds were expressed as a percentage of the control samples. The data were presented as mean ± standard deviation (SD), n = 8. IC50 values (the concentration of the tested compound that inhibited cell growth by 50%) were calculated using a concentration-response curve (GraphPad Prism, Software, San Diego, CA, USA).
# (§7) The concentrations contributing to the 50% of cell growth inhibition (IC50) were calculated using nonlinear regression analysis (fitting the curve to log (concentration) vs. cellular response).
# [13] = test system: MCF-7 cells; assay: Cell viability WST-1 assay, MCF-7; format: cell-based; details: Homo sapiens, MCF7; WST-1, 24 h, mean ± SD (n = 6–8); read-out: IC50 inhibition of MCF-7 cells' viability
# Description: as §6, §7
# [14] = reported previously, ref Markowicz-Piasecka et al., 2019
# [15] = compound and inhibitor 400 and 800 µmol/L, 10 min, 37 °C
# [16] = summary from uptake with inhibitors
# [17] = 800 μmol/L, 10 min incubation, 37 °C
# [18] = Eadie-Hofstee analysis, transporter I
# [19] = Eadie-Hofstee analysis, transporter II
smiles,measurement,setting,value
CN(C)C(=N)N=C(N)N [Metformin],metformin uptake in OCT3-BT20 cells relative to BT-20 cells,[1],more than 13 fold
same,maximal inhibition of [14C] choline uptake,[2]; 2400 μmol/L,29.9%
same,effect on MCF-7 growth,[3],did not significantly affect
same,Vmax MCF-7 (Michaelis Menten curves),[4]; [14],0.801 ± 0.296 nmol/min/mg
same,Km,"[4]; reported previously, ref Markowicz-Piasecka et al., 2019, read-out: Km MCF-7 (Michaelis Menten curves)",5.58 ± 1.56 mM
same,uptake into MCF-7 cells,[4],0.107 ± 0.006 nmol/min/mg of proteins
same,effect on MDA-MB-231 growth,[5],did not significantly affect
same,maximal inhibition of [14C] choline uptake,[6]; 2400 μmol/L,34.3%
same,Vmax MDA-231 cells (Michaelis Menten curves),[7]; [14],0.718 ± 0.181 nmol/min/mg
same,Km,"[7]; reported previously, ref Markowicz-Piasecka et al., 2019, read-out: Km MDA-231 cells (Michaelis Menten curves)",3.38 ± 0.952 mM
same,uptake into MDA-MB-231 cells,[7],0.117 ± 0.010 nmol/min/mg of proteins
CN(C)C(=N)N=C(N)NS(=O)(=O)c1ccc(Br)cc1 [Compound 6],"uptake in the presence of disopyramide, MCF-7",[8]; [15],significantly reduced
same,"uptake in the presence of lopinavir, MCF-7",[8]; [15],significantly decreased
same,"uptake in the presence of methenamine, MCF-7",[8]; [15],significantly decreased
same,"interactions with OCT, PMAT and MATE1 transporters, MCF-7",[8]; [16],"OCT1, PMAT, MATE1"
same,uptake into MDA-MB-231 cells,[9]; [17],0.75 ± 0.29 nmol/min/mg protein
same,"Vmax, transporter I, MDA-MB-231",[9]; [18],2.644 ± 0.22 nmol/min/mg
same,Km,"[9]; Eadie-Hofstee analysis, transporter I, read-out: Km, transporter I, MDA-MB-231",1.93 ± 0.223 mM
same,"Vmax, transporter II, MDA-MB-231",[9]; [19],2.091 ± 0.15 nmol/min/mg
same,Km,"[9]; Eadie-Hofstee analysis, transporter II, read-out: Km, transporter II, MDA-MB-231",2.11 ± 0.172 mM
same,Vmax MDA-231 cells (Michaelis Menten curves),[9]; Michaelis-Menten curve,4.044 ± 1.302 nmol/min/mg
same,Km,"[9]; Michaelis-Menten curve, read-out: Km MDA-231 cells (Michaelis Menten curves)",3.75 ± 1.6 mM
same,uptake into MCF-7 cells,[10]; [17],1.11 ± 0.16 nmol/min/mg protein
same,"Vmax, transporter I, MCF-7",[10]; [18],0.7898 ± 0.12 nmol/min/mg
same,Km,"[10]; Eadie-Hofstee analysis, transporter I, read-out: Km, transporter I, MCF-7",0.308 ± 0.102 mM
same,"Vmax, transporter II, MCF-7",[10]; [19],13.64 ± 1.55 nmol/min/mg
same,Km,"[10]; Eadie-Hofstee analysis, transporter II, read-out: Km, transporter II, MCF-7",8.93 ± 1.1 mM
same,"uptake in the presence of cimetidine, MDA-MB-231",[11]; [15],significantly decreased
same,"uptake in the presence of disopyramide, MDA-MB-231",[11]; [15],significantly decreased
same,"uptake in the presence of methenamine, MDA-MB-231",[11]; [15],significantly decreased
same,"interactions with OCT, PMAT and MATE1 transporters, MDA-MB-231",[11]; [16],"OCT1, OCT3, MATE1"
same,IC50,[2]; mean ± SD (n = 3),2490 ± 211 µM
same,IC50,[12],2110 ± 137 µM
same,IC50,[13],1140 ± 139 µM
same,IC50,[6]; mean ± SD (n = 3),2060 ± 58.4 µM

# — PMC7177633, “Effective Cellular Transport of Ortho-Halogenated Sulfonamide Derivatives of Metformin Is Related to Improved Antiproliferative Activity and Apoptosis Induction in MCF-7 Cells” (International Journal of Molecular Sciences, 2020)
